Laboratory results taken from ChEMBL document CHEMBL4715878 (J Med Chem, 2020).
Active and inactive are the calls of the source. No cut-off for these calls is given here.

Legend:
BT-474 [1] = assay: Induction of apoptosis in human BT474 cells assessed as increase in early apoptotic cells incubated for 72 hrs by Annexin V-FITC/PI staining based flow cytometry analysis; type: functional, cell-based; details: dose 0.1-5 µM
MCF7 [2] = assay: Potency index, ratio of lapatinib IC50 to test compound IC50 for antiproliferative activity against human MCF7 cells; type: functional
[3] = Selectivity ratio of IC50 for antiproliferative activity against human AU565 cells to IC50 for antiproliferative activity against human BT474 cells; type: functional
MDA-MB-231 = assay: Antiproliferative activity against human MDA-MB-231 cells assessed as reduction in cell viability incubated for 72 hrs by WST8 assay; type: functional, cell-based; details: MDA-MB-231, 72 h
BT-474 [4] = assay: Induction of apoptosis in human BT474 cells assessed as increase in early apoptotic cells at 0.5 to 5 uM incubated for 72 hrs by Annexin V-FITC/PI staining based flow cytometry analysis relative to control; type: functional; details: dose 0.5-5 µM
BT-474 [5] = assay: Antiproliferative activity against human BT474 cells assessed as reduction in cell viability incubated for 72 hrs by WST8 assay; type: functional, cell-based; details: BT-474, 72 h
MCF7 [6] = assay: Antiproliferative activity against human MCF7 cells assessed as reduction in cell viability incubated for 72 hrs by WST8 assay; type: functional, cell-based; details: MCF7, 72 h
BT-474 [7] = assay: Induction of apoptosis in human BT474 cells assessed as increase in late apoptotic cells at 0.5 to 5 uM incubated for 72 hrs by Annexin V-FITC/PI staining based flow cytometry analysis relative to control; type: functional; details: dose 0.5-5 µM
AU565 = assay: Antiproliferative activity against human AU565 cells assessed as reduction in cell viability incubated for 72 hrs by WST8 assay; type: functional, cell-based; details: AU565, 72 h

IC50 (MDA-MB-231): 6560 nM
IC50 (BT-474 [5]): 107 nM
IC50 (MCF7 [6]): 321 nM
Compound: CN(C)CC(=O)Nc1ccc2ncnc(Nc3ccc(Oc4cccc(F)c4)c(Cl)c3)c2c1
Activity (BT-474 [1]): Dose-dependent effect
Ratio IC50 (MCF7 [2]): <=20
Ratio IC50 [3]: 6
fold change (FC) (BT-474 [4]): <=6
Activity (BT-474 [7]): inactive
IC50 (AU565): 663 nM
